Data published in patent US10617680B2 (CELGENE QUANTICEL RESEARCH, INC., priority 2017, dated 2020).
pIC50: −log10 of the molar value. Where two headings read alike, the source gives them in different places.

What was measured:
BRD4 = BRD4 (Homo sapiens (Human), UniProt O60885); assay: In vitro enzyme inhibition assay - BRD4 inhibition; assay type: binding; details: BRD4 BD1, Table 30
CBP = CBP (Homo sapiens (Human), UniProt Q92793); assay: In vitro CBP inhibition (AlphaScreen, biotinylated H4-tetraacetyl peptide); assay type: binding
Method in brief: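 His-tagged CBP expressed in E. coli (50 nM final) incubated with biotinylated H4K5/8/12/16(Ac) peptide (20 nM final) in 50 mM HEPES pH 7.3, 10 mM NaCl, 0.25 mM TCEP, 0.1% BSA, 0.005% Brij-35, 0.4% DMSO, 20 min at room temp.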

[1] = AlphaScreen, Table 29, read-out: CBP IC50
[2] = Table 30, read-out: CRREBBP IC50

Sequence of CBP (Q92793 1081-1197): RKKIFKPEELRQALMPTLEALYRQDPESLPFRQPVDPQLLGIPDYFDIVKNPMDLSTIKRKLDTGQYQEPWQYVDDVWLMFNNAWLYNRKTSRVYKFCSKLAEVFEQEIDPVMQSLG

| Molecule | pIC50 (BRD4) | pIC50 (CBP; [1]) | pIC50 (CBP; [2]) |
| --- | --- | --- | --- |
| Cc1cc(-c2cnn(C(c3ccccc3)C3CC3)c2)cn(C)c1=O (stereo not drawn) [Example 18, 5-(1-(cyclopropyl (phenyl)methyl)-1H-pyrazol-4-yl)-1,3-dimethyl-pyridin-2(1H)-one] | 5.30 to 6.30 | – | – |
| CC(c1ccccc1)n1cc(-c2cn(C)c(=O)cc2N2CCCC2)cn1 (stereo not drawn) [Example 41, 1-methyl-5-(1-(1-phenylethyl)-1H-pyrazol-4-yl)-4-(pyrrolidin-1-yl) pyridin-2(1H)-one] | 5.30 to 6.30 | > 6.30 | > 6.30 |
| CC(c1ccccc1)n1cc(-c2cn(C)c(=O)cc2N2CCOCC2)cn1 (stereo not drawn) [Example 43, 1-methyl-4-morpholino-5-(1-(1-phenylethyl)-1H-pyrazol-4-yl) pyridin-2(1H)-one] | 5.30 to 6.30 | > 6.30 | > 6.30 |
| Cn1cc(-c2cnn(Cc3ccccc3)c2)c(N2CC[C@@H](C(=O)O)C2)cc1=O [Example 74, (R)-1-(5-(1-benzyl-1H-pyrazol-4-yl)-1-methyl-2-oxo-1,2-dihydro-pyridin-4-yl)pyrrolidine-3-carboxylic acid] | < 5.30 | > 6.30 | > 6.30 |
| Cn1cc(-c2cnn(Cc3ccccc3)c2)c(-n2ccnc2)cc1=O [Example 94, 5-(1-benzyl-1H-pyrazol-4-yl)-4-(1H-imidazol-1-yl)-1-methyl-pyridin-2(1H)-one] | < 5.30 | > 6.30 | > 6.30 |
| Cc1cc(-c2cc(=O)n(C)cc2-c2cnn(Cc3ccccc3)c2)[nH]n1 [Example 115, 5-(1-benzyl-1H-pyrazol-4-yl)-1-methyl-4-(3-methyl-1H-pyrazol-5-yl) pyridin-2(1H)-one] | < 5.30 | > 6.30 | > 6.30 |
| Cn1cc(-c2cnn(Cc3ccccc3)c2)c(-c2ccon2)cc1=O [Example 121, 5-(1-benzyl-1H-pyrazol-4-yl)-4-(isoxazol-3-yl)-1-methyl-pyridin-2(1H)-one] | < 5.30 | > 6.30 | > 6.30 |
| Cn1cc(-c2cnn(CS(C)(=O)=O)c2)c(-c2ccccc2)cc1=O [Example 129, 1-methyl-5-(1-((methyl-sulfonyl)-methyl)-1H-pyrazol-4-yl)-4-phenylpyridin-2(1H)-one] | < 5.30 | > 6.30 | > 6.30 |
| Cn1cc(-c2cnn(-c3ccccc3C(=O)O)c2)c(-c2ccccc2)cc1=O [Example 223, 2-[4-(1-Methyl-6-oxo-4-phenyl-1,6-dihydro-pyridin-3-yl)-pyrazol-1-yl]-benzoic acid] | < 5.30 | > 6.30 | > 6.30 |
| Cn1cc(-c2cnn(-c3ccccc3S(C)(=O)=O)c2)c(-c2ccc(Cl)cc2)cc1=O [Example 286, 4-(4-Chloro-phenyl)-5-[1-(2-methanesulfonyl-phenyl)-1H-pyrazol-4-yl]-1-methyl-1H-pyridin-2-one] | < 5.30 | > 6.30 | > 6.30 |
| CCNc1ncc(-c2cc(=O)n(C)cc2-c2cnn(-c3ccccc3C#N)c2)cn1 [Example 323, 2-(4-(4-(2-(ethylamino)pyrimidin-5-yl)-1-methyl-6-oxo-1,6-dihydropyridin-3-yl)-1H-pyrazol-1-yl)benzonitrile] | 5.30 to 6.30 | > 6.30 | > 6.30 |
| Cn1cc(-c2cnn(-c3cccc(C4CC4)c3C#N)c2)c(-c2ccn(C3CC3)c(=O)c2)cc1=O [Example 388, 2-cyclopropyl-6-(4-(1′-cyclopropyl-1-methyl-2′,6-dioxo-1,1′,2′,6-tetrahydro-[4,4′-bipyridin]-3-yl)-1H-pyrazol-1-yl)benzonitrile] | – | > 6.30 | – |
| Cn1cc(-c2cnn(-c3cccc(C4CC4)c3C#N)c2)c(-c2ccn(CCF)c(=O)c2)cc1=O [Example 389, 2-cyclopropyl-6-[4-[4-[1-(2-fluoroethyl)-2-oxo-4-pyridyl]-1-methyl-6-oxo-3-pyridyl]pyrazol-1-yl]benzonitrile] | – | > 6.30 | – |
| Cn1cc(-c2cnn(-c3cccc(C4CC4)c3C#N)c2)c(-c2ccn(CCO)c(=O)c2)cc1=O [Example 390, 2-cyclopropyl-6-[4-[4-[1-(2-hydroxyethyl)-2-oxo-4-pyridyl]-1-methyl-6-oxo-3-pyridyl]pyrazol-1-yl]benzonitrile] | – | > 6.30 | – |
| Cn1cc(-c2cnn(-c3cccc(C4CC4)c3C#N)c2)c(-c2ccc(OCC3CC3)nc2)cc1=O [Example 391, 2-cyclopropyl-6-(4-(6-(cyclopropylmethoxy)-1′-methyl-6′-oxo-1′,6′-dihydro-[3,4′-bipyridin]-3′-yl)-1H-pyrazol-1-yl)benzonitrile] | – | > 6.30 | – |
| CCOc1cc(=O)n(C)cc1-c1cnn2c1CN(S(C)(=O)=O)CC2 [Example 392, 4-Ethoxy-5-(5-methanesulfonyl-4,5,6,7-tetrahydro-pyrazolo[1,5-a]pyrazin-3-yl)-1-methyl-1H-pyridin-2-one] | – | > 6.30 | – |
| CCOc1cc(=O)n(C)cc1-c1cnn2c1CN(C(C)=O)CC2 [Example 393, 5-(5-Acetyl-4,5,6,7-tetrahydro-pyrazolo[1,5-a]pyrazin-3-yl)-4-ethoxy-1-methyl-1H-pyridin-2-one] | – | 5.30 to 6.30 | – |
| Cn1cc(-c2ncc(-c3ccccc3)o2)c(-c2ccccc2)cc1=O [Example 394, 1-methyl-4-phenyl-5-(5-phenyloxazol-2-yl)pyridin-2(1H)-one] | – | 5.30 to 6.30 | – |
| Cn1nc(-c2cn(C)c(=O)cc2-c2ccccc2)cc1-c1ccccc1 [Example 395, 1-methyl-5-(1-methyl-5-phenyl-1H-pyrazol-3-yl)-4-phenylpyridin-2(1H)-one] | – | > 6.30 | – |
| Cn1cc(-c2coc(-c3ccccc3)n2)c(-c2ccccc2)cc1=O [Example 396, 1-methyl-4-phenyl-5-(2-phenyloxazol-4-yl)pyridin-2(1H)-one] | – | > 6.30 | – |
| Cn1cc(-c2cnc(-c3ccccc3)o2)c(-c2ccccc2)cc1=O [Example 397, 1-methyl-4-phenyl-5-(2-phenyloxazol-5-yl)pyridin-2(1H)-one] | – | 5.30 to 6.30 | – |
| Cc1sc2c(c1C)C(c1ccc(Cl)cc1)=N[C@@H](CC(=O)OC(C)(C)C)c1nnc(C)n1-2 [JQ-1, tert-butyl (S)-2-(4-(4-chloro-phenyl)-2,3,9-trimethyl-6H-thieno[3,2-f][1,2,4]triazolo[4,3-a][1,4]diazepin-6-yl)acetate, reference compound] | – | – | < 5.30 |
| Cc1cc(-c2nc(NS(C)(=O)=O)ncc2Oc2ccc(F)cc2F)cn(C)c1=O [N-(5-(2,4-difluorophenoxy)-4-(1,5-dimethyl-6-oxo-1,6-dihydropyridin-3-yl)pyrimidin-2-yl) methanesulfonamide] | > 6.30 | – | < 5.30 |
| N-{2-[5-(1-benzyl-1H-pyrazol-4- yl)-1-methyl-2-oxo-1,2-dihydro- pyridin-4-yl]-cyclo- pentyl}-acetamide [Example 88] | – | > 6.30 | – |
